Test results reported in the NIST ThermoML archive (doi:10.1021/je049796y).

Test: xn = mol fraction of the nth substance listed
Details: 283.65 K, Vibrating tube method

C=C [ethene] + CCO
Details | mass density [kg/m3]
Liquid mixture 1, x1 = 0.685 | 529.3
Liquid mixture 1, x1 = 0.712 | 503.5
Liquid mixture 2, x1 = 0.862 | 410
Liquid mixture 2, x1 = 0.892 | 385.6

Liquid
Details | mass density [kg/m3]
x1 = 0.101 | 767.8
x1 = 0.178 | 741.9
x1 = 0.268 | 708.7
x1 = 0.408 | 661.3
x1 = 0.512 | 614.1
x1 = 0.614 | 564.2
x1 = 0.94 | 347.3
x1 = 0.989 | 295.1
